In US6303617A, “Serotonin-like 9-substituted hypoxanthine and methods of use” (Neotherapeutics, Inc., priority 1999, dated 2001):

Columns and labels:
monoamine oxidase A/B = assay: Inhibition of monoamine oxidase A/B catalytic activity (mouse brain mitochondria, tyramine substrate); type: biochemical
Experimental: Experiments were carried out to determine whether the serotonin analogue N-(2-(5-hydroxyindol-3-yl)ethyl)-3-(6-oxohydropurin-9-yl)propanamide (AIT-202) inhibited monoamine oxidases A and B. These experiments were performed as follows:
Mice (3-5 mice) were sacrificed by cervical dislocation. The brains were isolated and placed immediately in 10 ml cold isolation medium (IM) (500 μM EDTA, 5 mM HEPES, 0.25 M sucrose, and 10 mg/L bovine serum albumin (BSA)). The brains were minced and rinsed twice with 10 mL IM. The brains were then homogenized (5-6 strokes) in 10 mL IM. A volume (20 mL) of IM was then added and the homogenized preparation was centrifuged 8-10 minutes at 600×g at 4° C. The supernatant was transferred to a new tube. […]
For the enzyme assays, 1.0 mL to 1.5 mL 50 mM sodium phosphate, pH 7.4 containing 5 μM scopoletin and 2 U/mL horseradish peroxidase) were aliquoted in the wells of a Falcon 24-well plate (reaction mixture or RM). […] The preincubation was carried out in the Cytofluor® 4000 (PerSeptive Biosystems) and the baseline fluorescence at λex =360 nm and λem =460 nm was recorded. After 6 min, the reading was interrupted and 150-166 μM tyramine (monoamine oxidase A and monoamine oxidase B substrate) or the corresponding amount of water were added according to the plate layout. The reading was continued for approximately 30 minutes at 3-minute intervals. […]

obese mice = assay: Control of obesity in naturally obese mice, 14 days oral; type: in vivo, mouse; settings: naturally obese mice (>45 g), daily oral gavage, three doses, FIG. 4
Experimental: The activity of N-(2-(5-hydroxyindol-3-yl)ethyl)-3-(6-oxohydropurin-9-yl)propanamide (AIT-202) in controlling obesity in mice was tested. Mice from the existing animal colony of NeoTherapeutics (Irvine, Calif.) which were naturally obese (greater than 45 grams in weight) were treated with N-(2-(5-hydroxyindol-3-yl)ethyl)-3-(6-oxohydropurin-9-yl)propanamide daily orally by gavage for 14 days. The mice were dosed with one of three doses of N-(2-(5-hydroxyindol-3-yl)ethyl)-3-(6-oxohydropurin-9-yl)propanamide or vehicle (0.5% methylcellulose). Their weight and food consumption were monitored daily.

total serum cholesterol [1] = assay: Lowering of total serum cholesterol in mice; type: in vivo, mouse; settings: 300 mg/kg oral, 24 hours before determination; 5 mice; vs control group; decrease of 15% or more considered significant
Experimental: The activity of N-(2-(5-hydroxyindol-3-yl)ethyl)-3-(6-oxohydropurin-9-yl)propanamide (AIT-202) in lowering total serum cholesterol was tested in mice. Mice (5 mice) were administered N-(2-(5-hydroxyindol-3-yl)ethyl)-3-(6-oxohydropurin-9-yl)propanamide orally at a dosage of 300 mg/kg body weight for 24 hours before cholesterol determination. Total serum cholesterol was determined by standard methods. […] A decrease of 15% or more is considered significant in this test.

total serum cholesterol [2] = assay: Total serum cholesterol in Swiss Webster mice fed a high cholesterol or normal diet; type: in vivo; settings: dosed on days 6 and 7 of diet, serum on day 8; FIG. 5
Experimental: (§1) On days 6 and 7 the mice were given the compound N-(2-(5-hydroxyindol-3-yl)ethyl)-3-(6-oxohydropurin-9-yl)propanamide (AIT-202), a positive control (bezafibrate), or a vehicle. The animals were fasted overnight and on day 8 trunk blood was collected. Total cholesterol and HDL cholesterol were measured in serum.

HDL cholesterol = HDL cholesterol in serum of Swiss Webster mice fed a high cholesterol or normal diet; type: in vivo; settings: dosed on days 6 and 7 of diet, serum on day 8; FIG. 5
Experimental: as §1

effect on the catalytic activity of monoamine oxidase A and B (monoamine oxidase A/B; 2-150 μM compound, tyramine substrate, FIGS. 2 and 3): significant effect
IC50 (monoamine oxidase A/B; estimated, mouse brain mitochondrial protein 0.22-0.24 mg/mL, 150-166 μM tyramine, pH 7.4, 37° C.): ~2 µM
SMILES: O=C(CCn1cnc2c(=O)[nH]cnc21)NCCc1c[nH]c2ccc(O)cc12 [AIT-202, N-(2-(5-hydroxyindol-3-yl)ethyl)-3-(6-oxohydropurin-9-yl)propanamide]
benefit to treatment in obese mice (obese mice): There appears to be benefit to treatment
decrease of total serum cholesterol (total serum cholesterol [1]): 18%
effect on total serum cholesterol (total serum cholesterol [2]): lowers total serum cholesterol
effect on HDL cholesterol (HDL cholesterol): raises HDL cholesterol
